Here are results for eight compounds from patent publication US20200079786A1, “ANALOGS OF […] AS SOLUBLE EPOXIDE HYDROLASE INHIBITORS” (UNIVERSITAT DE BARCELONA, priority 2015, published 2020).

≈ marks a conversion by molar mass, not a printed value.

One series concerns the target T1, sEH in AR42j cells (Rattus norvegicus, UniProt P80299).
T1 sequence (P80299 1-554): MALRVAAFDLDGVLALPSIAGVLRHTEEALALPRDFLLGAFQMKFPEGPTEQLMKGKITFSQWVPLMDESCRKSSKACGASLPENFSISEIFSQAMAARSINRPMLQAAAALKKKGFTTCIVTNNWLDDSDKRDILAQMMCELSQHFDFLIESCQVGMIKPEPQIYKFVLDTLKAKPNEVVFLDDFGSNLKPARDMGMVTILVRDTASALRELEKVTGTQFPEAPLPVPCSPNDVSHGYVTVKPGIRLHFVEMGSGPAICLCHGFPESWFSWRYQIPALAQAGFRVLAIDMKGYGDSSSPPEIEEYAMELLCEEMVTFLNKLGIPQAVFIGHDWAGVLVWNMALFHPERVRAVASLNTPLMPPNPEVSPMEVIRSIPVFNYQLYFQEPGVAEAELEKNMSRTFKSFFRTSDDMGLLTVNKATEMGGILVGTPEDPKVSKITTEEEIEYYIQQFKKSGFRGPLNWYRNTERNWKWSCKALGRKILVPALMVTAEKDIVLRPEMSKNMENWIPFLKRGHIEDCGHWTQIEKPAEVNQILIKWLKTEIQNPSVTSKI
Description: In vitro determination of sEH inhibition activity in AR42j cells (cell-based fluorescent assay). Conditions: AR-42J, read-out: % Inhn. ± SE (100 μM), sEH inhibition activity in cell culture.

A short description of series [1]: Determination of water solubility (nephelometry). It counts as physicochemical. Particulars: aqueous with cosolvent or surfactant or cyclodextrin, kinetic from dmso stock; 5% DMSO: 95% PBS buffer, 37° C., read after 2 and 4 h; read-out: S (solubility).
A further series addresses CYP2C19 (Homo sapiens, UniProt P33261). Description: Inhibition of human cytochrome P450 CYP2C19. It counts as in vitro ADME. Particulars: human cytochrome P450 enzyme. The text has this:
(§1) The epoxidation of arachidonic acid (AA) by selected cytochrome P450 epoxygenases generates epoxyeicosatrienoic acids (EETs). These EETs show anti-inflammatory, antihypertensive, analgesic, angiogenic, and antiatherosclerotic effects in rodents and humans. sEH converts EETs to their corresponding dihydroxyeicosatrienoic acids (DHETs), whereby the biological effects of EETs are diminished, eliminated, or altered. Among the P450 enzymes, it is known that CYP2C19 and CYP1A2 have the highest formation rate of EETs from AA (cf. A. A. El-Sherbeni et al. “Repurposing resveratrol and fluconazole to modulate human cytrochrome P450-mediated arachidonic acid metabolites”, Molecular Pharmaceutics 2016, vol. 13, pp. 1278-1288). For this reason, a highly desirable aspect of any new sEH inhibitor is selectivity in front of CYP2C19 and CYP1A2.

Series [2] can be described thus: Parallel artificial membrane permeation assay for blood-brain barrier (PAMPA-BBB). Format: in vitro ADME, porcine. Particulars: PBS:EtOH (70:30). As to the method:
The in vitro permeability (Pe) of the test compounds through lipid extract of porcine brain membrane was determined. Assayed compounds were tested using a mixture of PBS:EtOH (70:30). […] From this equation and taking into account the limits established by Di et al. for BBB permeation, the ranges of permeability were established, as follows.

Series [3] is described as follows: Determination of cytotoxicity in THLE-2 cells (ATP viability). It counts as cell-based. Conditions: human; THLE-2 cells, 72 h exposure, 0-100 μM; read-out: LC50 (μM), cytotoxicity. As to the method:
Cytotoxic effects of assayed compounds were tested using the immortalized human liver cell line THLE-2 (ATCC CRL-2706). Cells were cultured in BEGM medium (Clonetics # CC-4175) containing all the supplements kit except additional EGF and G418. Medium was completed by adding 0.7 μg/mL phosphoethanolamine, 0.5 ng/mL epidermal growth factor, antibiotics (penicillin and streptomycin) and 10% fetal bovine serum (FBS).
Cells were plated in 96-well black microplates at 10,000 cells/well density and were incubated at 37° C. (5% CO2, 95% humidity) for 24 h to allow the cells to adhere and form a monolayer. Test compounds were solubilized in 100% DMSO at a concentration curve way and then diluted with cell culture medium containing 10% DMSO. The final concentrations of the test compounds (1% DMSO) ranged from 0-100 μM in a final volume of 200 μL. Microplates were maintained at 37° C. (5% CO2, 95% humidity) during 3 days. Following this 72 h exposure to test compounds, cell viability in each well was determined by measuring the concentration of cellular adenosine triphosphate (ATP) using the ATP1Step Kit as described by the manufacturer (Perkin-Elmer). In a typical procedure, 50 μL of cell reagent is added to all wells of each test plate followed by incubation for 10 min at room temperature on an orbital shaker. ATP concentration was determined by reading chemical luminescence using the Envision plate reader (PerkinElmer). The percentage of viable cells relative to the non-drug treated controls was determined for each well and LC50 values were calculated as concentrations projected to kill 50% of the cells following a 72 h exposure, an average of minimum two independent replicates.

The next series concerns the target T2, CYP1A2 (Homo sapiens, UniProt P05177).
T2 sequence (P05177 1-516): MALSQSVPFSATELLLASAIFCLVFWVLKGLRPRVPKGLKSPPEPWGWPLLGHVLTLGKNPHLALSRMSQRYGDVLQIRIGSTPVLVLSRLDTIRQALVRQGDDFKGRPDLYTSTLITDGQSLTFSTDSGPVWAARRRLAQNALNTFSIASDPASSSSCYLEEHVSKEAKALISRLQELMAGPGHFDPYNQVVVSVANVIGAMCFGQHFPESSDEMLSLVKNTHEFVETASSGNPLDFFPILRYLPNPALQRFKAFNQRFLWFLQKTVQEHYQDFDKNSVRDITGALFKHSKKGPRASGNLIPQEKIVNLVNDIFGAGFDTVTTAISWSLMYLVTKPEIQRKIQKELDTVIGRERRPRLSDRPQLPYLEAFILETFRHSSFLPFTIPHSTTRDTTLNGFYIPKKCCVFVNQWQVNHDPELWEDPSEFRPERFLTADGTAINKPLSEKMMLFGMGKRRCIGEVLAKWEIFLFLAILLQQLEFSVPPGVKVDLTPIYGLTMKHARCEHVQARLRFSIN
Nature of the series: Inhibition of human cytochrome P450 CYP1A2. Format: in vitro ADME. Particulars: human cytochrome P450 enzyme.
Excerpt: as §1

The subject of a further series is Huh-7 cells. Nature of the series: Amelioration of palmitate-induced ER stress: ATF3, BiP and CHOP mRNA by real-time PCR. Conditions: palmitate 0.5 mM + inhibitor 1 μM, 48 h; for Level of CHOP mRNA: control (CT) = 100.0, PAL alone 224.5; for Level of BiP mRNA: control (CT) = 100.0, PAL alone 242.9; for Level of ATF3 mRNA: control (CT) = 100.0, PAL alone 585.5. It counts as cell-based. As to the method: Huh-7 cells were maintained in a humid atmosphere of 5% CO2 at 37° C. in high glucose (25 mM) Dulbecco's modified Eagle's medium supplemented with 10% heat-inactivated fetal bovine serum, 1% of penicillin/streptomycin (10.000 units/mL of penicillin and 10.000 μg/mL of streptomycin) and 1% of amphotericin B (250 μg/mL).
Huh-7 cells were serum-starved overnight prior treatment. […] For RNA extraction, cells were pre-treated with the inhibitors (final concentration 1 μM) for 1 hour before treatment with palmitate (final concentration 0.5 mM) and inhibitors (final concentration 1 μM). For each condition, at least 3 replicates were performed. Following 48 hours of incubation, RNA were extracted as described below.
Total RNA in hepatocytes was harvested by TRIsure (Bioline) according to the manufacturer's instructions. The extracted RNA was dissolved in RNase-free water and concentrations of total RNA were quantified using a NanoDrop 2000c spectrophotometer (Thermo Scientific). First-stranded cDNA was synthesized from 0.5 μg total RNA (Life Technologies). […] The PCR reaction contained 10 ng of reverse-transcribed RNA, 2× IQ™ SYBRGreen Supermix (BioRad, Barcelona, Spain) and 900 nmol/L concentration of each primer. Optical primer amplification efficiency for each primer set was assessed and a dissociation protocol was carried out to assure a single PCR product. PCR assays were performed on a MiniOpticon™ Real-Time PCR system (BioRad). Thermal cycling conditions were as follows: activation of Taq DNA polymerase at 95° C. for 10 min, followed by 40 cycles of amplification at 95° C. for 15 sec and 60° C. for 1 min. The relative levels of specific mRNA were estimated from the value of the threshold cycle (Ct) of the real-time PCR adjusted by that of a housekeeping gene (GAPDH) through the formula […] (ΔCt=Gene of interest Ct-GAPDH Ct). Cf.

CYP2C19, sequence (P33261 whole entry): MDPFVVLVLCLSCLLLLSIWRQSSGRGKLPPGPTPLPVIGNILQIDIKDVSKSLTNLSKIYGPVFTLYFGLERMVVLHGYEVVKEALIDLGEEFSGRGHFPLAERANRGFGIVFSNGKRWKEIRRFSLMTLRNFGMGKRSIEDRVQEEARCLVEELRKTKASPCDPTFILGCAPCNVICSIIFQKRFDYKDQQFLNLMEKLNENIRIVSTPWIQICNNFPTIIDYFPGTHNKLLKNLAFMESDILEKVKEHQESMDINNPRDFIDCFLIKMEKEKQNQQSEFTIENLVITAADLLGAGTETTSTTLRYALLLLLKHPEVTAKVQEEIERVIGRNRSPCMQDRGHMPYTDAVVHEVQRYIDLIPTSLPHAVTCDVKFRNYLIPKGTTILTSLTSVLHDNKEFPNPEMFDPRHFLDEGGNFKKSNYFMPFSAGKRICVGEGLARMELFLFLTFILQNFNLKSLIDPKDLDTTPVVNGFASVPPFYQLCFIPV
Description for sEH in AR42j cells: Solutions Preparation: • Assay buffer 1×: add 10 mL of the CBA-Buffer (10×) to 90 mL of distilled water. • Lysis Buffer: add 50 μL of the CBA Digitonin Solution to 10 mL of Buffer Assay 1×. • Substrate Solution: dilute 10 μL of CBA sEH Substrate with 10 mL of Assay Buffer 1×. • Standards: preparation of 7 concentrations of CBA 6-methoxy-2-naphtalaldehyde from 0 until 2 M with Assay Buffer 1×. • sEH Positive Control: Prepare another stock A (1 μg/ml: 1 μL CBA sEH Positive Control+1 mL Assay Buffer 1×). From the already prepared stock A, prepare 250 μL of sEH (10 ng/mL): 2.5 μL sEH stock A+250 μL Assay Buffer 1×). • sEH Inhibitor AUDA: dilute 10 μL CBA sEH Inhibitor with 500 ml Assay Buffer 1×. • Inhibitors dissolved in DMSO at appropriated concentrations.
Seed cells in a 96-well plate at a density of (2×10^4)-(5×10^4) cells/well in 100 μL of culture medium with or without compounds to be tested. Incubation of the cells in a CO2 incubator at 37° C. for 48 hours. Aspirate the culture medium and add 200 μL of Assay Buffer 1× to each well. Centrifuge the plate at 800 rmp for 5 minutes. Aspirate the supernatant and add 100 μL of Lysis Buffer to each well. Incubate with gentle shaking on an orbital shaker for 30 minutes at room temperature. Centrifuge the plate at 3000 rpm for 20 minutes at 4° C. Transfer 90 μL of the supernatants to the 96-Well Solid Plate (black). Add 10 μL Assay Buffer 1× or 10 μL of the AUDA solution to appropriate wells. For positive control wells, add 100 μL of the 10 ng/mL sEH Positive Control to two wells. Add 200 μL of 6-methoxy-2-Naphthaldehyde Standards to corresponding wells of the black plate. Add 100 μL of the sEH Substrate Solution to each well, except the standards. Incubate the plate at 37° C. for 30 minutes. […] The intensity of fluorescence was used to analyze and calculate inhibition percentages, shown in the Table as average of minimum three independent replicates.

In the case of `O=C(Nc1ccc(F)c(F)c1F)NC12CC3CC(CC(C3)O1)C2` [Ia, 1-(2-oxaadamantan-1-yl)-3-(2,3,4-trifluorophenyl)urea], the inhibition at 100 µM on sEH in AR42j cells turned out to be 35.8 ± 4.7%. Further, the solubility in series [1] was 77 µM (≈ 25.1 µg/mL). Moreover, at CYP2C19, the inhibition at 1 µM is no more than 6%. Further, the CNS prediction entry in series [2] is on record as “CNS+ (Compounds of high BBB permeation (CNS+): Pe (10^6 cm s^−1)>5.181)”. In addition, the CC50 at 72 h in series [3] is greater than 100 µM. In addition, the inhibition at 1 µM against CYP1A2 was no more than 6%. Moreover, in the series on Huh-7 cells, the “Level of CHOP mRNA” value is given as 129.9 ± 37.6^(###), the “Level of BiP mRNA” value was 129.0 ± 20.5^(###) and the “Level of ATF3 mRNA” value is 191.4 ± 22.6^(###).

With `CC(C)S(=O)(=O)N1CCC(NC(=O)NC23CC4CC(CC(C4)O2)C3)CC1` [Io, 1-(2-oxaadamant-1-yl)-3-(1-(isopropylsulfonyl)piperidin-4-yl)urea], the inhibition at 100 µM at sEH in AR42j cells was determined as 40.9 ± 1.99%. Besides, the solubility in series [1] was greater than 100 µM. The inhibition at 1 µM against CYP2C19 and at CYP1A2 was no more than 6% in each case. For the same compound, in series [2], the CNS prediction entry was “CNS− (compounds of low BBB permeation (CNS−): Pe (10^6 cm s^−1)<2.107)”. In series [3], the CC50 at 72 h was greater than 100 µM.

Take `O=C(NC1CCN(C(=O)c2ccccc2F)CC1)NC12CC3CC(CC(C3)O1)C2` [Is, 1-(2-oxaadamant-1-yl)-3-(1-(2-fluorobenzoyl)piperidin-4-yl)urea]: at sEH in AR42j cells, the inhibition at 100 µM turned out to be 45.3 ± 3.5%. In addition, the solubility in series [1] is greater than 100 µM. In addition, the inhibition at 1 µM at CYP2C19 and at CYP1A2 was no more than 6% throughout. In addition, the CNS prediction entry in series [2] is given as “CNS− (compounds of low BBB permeation (CNS−): Pe (10^6 cm s^−1)<2.107)”. Moreover, in series [3], the CC50 at 72 h was greater than 100 µM.

Turning to `O=C(Nc1cc(Cl)cc(OC(F)(F)F)c1)NC12CC3CC(CC(C3)O1)C2` [Iu], in series [1], the solubility was 45 µM (≈ 17.6 µg/mL). Moreover, the inhibition at 1 µM against CYP2C19 and against CYP1A2 was no more than 6% throughout.

Take `O=C(Nc1ccc(Cl)c(C(F)(F)F)c1)NC12CC3CC(CC(C3)O1)C2` [Iv, 1-(2-oxaadamantan-1-yl)-3-(4-chloro-3-(trifluoromethyl)phenyl)urea]: the inhibition at 100 µM on sEH in AR42j cells amounted to 51.6 ± 6.6%. For the same compound, the solubility in series [1] came to 60 µM (≈ 22.5 µg/mL). In addition, the inhibition at 1 µM at CYP2C19 and against CYP1A2 was no more than 6% in each case. Besides, the CNS prediction entry in series [2] is recorded as “CNS+ (Compounds of high BBB permeation (CNS+): Pe (10^6 cm s^−1)>5.181)”. For the same compound, in series [3], the CC50 at 72 h stood at 45.8 ± 3.8 µM.

Consider `O=C(Nc1cccc(S(F)(F)(F)(F)F)c1)NC12CC3CC(CC(C3)O1)C2` [Ix, 1-(2-oxaadamantan-1-yl)-3-(3-(pentafluoro-λ^6-sulfanyl)phenyl)urea], for which the solubility in series [1] was greater than 100 µM. Moreover, the inhibition at 1 µM on CYP2C19 and on CYP1A2 was no more than 6% in each case.

Take `O=C(Nc1ccc(F)c(F)c1F)NC12CC3CC(CC(C3)C1)C2` [Std 1, 1-(Adamantan-1-yl)-3-(2,3,4-trifluorophenyl)urea, reference compound]: on sEH in AR42j cells, the inhibition at 100 µM worked out at 56.6 ± 11%. For the same compound, in series [1], the solubility came out at 66 µM (≈ 21.4 µg/mL).

As for `O=C(Nc1ccc(F)c(F)c1F)NC1C2CC3CC(C2)CC1C3` (centres unmarked) [Std 2, 1-(Adamantan-2-yl)-3-(2,3,4-trifluorophenyl)urea, reference compound], in the series on Huh-7 cells, the “Level of CHOP mRNA” value is 141.8 ± 23.7^(###), the “Level of BiP mRNA” value is given as 135.1 ± 16.2^(###) and the “Level of ATF3 mRNA” value is listed as 225.6 ± 21.2^(###).
